Data from patent US20250145585A1, “HETEROCYCLIC INHIBITORS OF IGF-1R FOR TREATMENT OF DISEASE” (HORIZON THERAPEUTICS IRELAND DAC, priority 2023, published 2025).
pIC50: −log10 of the molar value.

Each compound was assayed against T1, IGF-1R (Homo sapiens, UniProt P08069) (assay: Example B-1: IGF-1R Assay (PC3 cells stimulated with IGF1, AlphaLISA on cell lysates)). Settings: compound two hours, IGF1 200 ng/mL for 30 min, read-out: IC50, Biological Activity against IGF-1R (Table B1).
T1 construct: expressed in transfected cells
T1 sequence (P08069 31-1367): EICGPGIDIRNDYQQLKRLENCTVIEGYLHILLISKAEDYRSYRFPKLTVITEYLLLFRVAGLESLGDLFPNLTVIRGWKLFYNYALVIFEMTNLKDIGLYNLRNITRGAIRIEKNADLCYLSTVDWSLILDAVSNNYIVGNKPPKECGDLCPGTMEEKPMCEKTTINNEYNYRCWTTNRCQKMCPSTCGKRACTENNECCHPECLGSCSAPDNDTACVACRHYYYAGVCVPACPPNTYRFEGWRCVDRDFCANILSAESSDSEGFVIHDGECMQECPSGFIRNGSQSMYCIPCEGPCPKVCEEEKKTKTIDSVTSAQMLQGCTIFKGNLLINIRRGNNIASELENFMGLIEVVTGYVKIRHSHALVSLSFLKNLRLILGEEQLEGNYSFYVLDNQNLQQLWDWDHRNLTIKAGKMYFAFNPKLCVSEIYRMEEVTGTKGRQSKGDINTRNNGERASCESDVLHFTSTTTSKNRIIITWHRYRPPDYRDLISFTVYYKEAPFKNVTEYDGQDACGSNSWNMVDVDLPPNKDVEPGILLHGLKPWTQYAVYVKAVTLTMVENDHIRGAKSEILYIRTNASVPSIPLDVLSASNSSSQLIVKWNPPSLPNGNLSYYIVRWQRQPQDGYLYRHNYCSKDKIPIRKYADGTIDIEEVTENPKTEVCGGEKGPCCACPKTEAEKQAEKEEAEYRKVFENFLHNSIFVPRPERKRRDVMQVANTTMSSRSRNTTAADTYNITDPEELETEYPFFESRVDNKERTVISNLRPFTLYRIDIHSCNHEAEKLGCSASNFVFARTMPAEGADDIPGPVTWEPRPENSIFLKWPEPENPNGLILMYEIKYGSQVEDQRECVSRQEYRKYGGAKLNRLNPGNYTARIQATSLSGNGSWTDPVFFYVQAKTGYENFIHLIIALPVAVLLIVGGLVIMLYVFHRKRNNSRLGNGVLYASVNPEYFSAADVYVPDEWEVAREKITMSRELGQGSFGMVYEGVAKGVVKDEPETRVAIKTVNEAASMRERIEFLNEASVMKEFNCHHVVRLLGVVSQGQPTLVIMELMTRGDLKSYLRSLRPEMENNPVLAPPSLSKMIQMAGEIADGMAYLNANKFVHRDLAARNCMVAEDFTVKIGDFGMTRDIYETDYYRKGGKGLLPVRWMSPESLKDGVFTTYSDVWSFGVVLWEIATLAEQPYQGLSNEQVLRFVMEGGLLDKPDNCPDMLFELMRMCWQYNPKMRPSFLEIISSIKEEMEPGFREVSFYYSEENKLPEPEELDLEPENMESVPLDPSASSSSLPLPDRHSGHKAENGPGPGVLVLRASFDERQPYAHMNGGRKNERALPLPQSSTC
Assay type: cell-based
Protocol: 50K PC3 cells were seeded on day 1 in 50 μL of media in 96-well plate and incubated overnight at 37° C., 5% CO2. On day 2, all cells were expected to be at 80-90% confluency. Cells were starved for two hours by changing the media to 90 μL of EMEM serum-free media and incubated for 2 hours. Next, cells were treated with 10 μL of 10× concentrated and 3× serially diluted compounds for two hours. It makes 1× of compounds in 100 μL media. This was followed by stimulation of cells with 11×IGF1 for 30 min in 10 μL of serum-free EMEM media at the final concentration of 200 ng/mL.
The media was removed and replaced by 50 μL of 1× lysis buffer from the AlphaLISA kit (with 1× of cOmplete™ protease inhibitor). The plates were sealed, and cells were allowed to lyse for 10 min in the shaker before storing the plate at −20° C. until used. The AlphaLISA assay with processed cell lysates were performed as described in the protocol. Briefly, 10 μL of the undiluted sample were loaded to 384 well Optiplates and 5 μL of the acceptor mix (as described in the AlphaLISA kit) was added to each well. The plates were sealed and briefly vortexed followed by the incubation at RT for 3 hours. In the dark, 5 μL of donor mix was added to each well. All plates were sealed and stored at RT overnight. The plates were read in EnVision reader using standard AlphaLISA settings.
Compound activity was analyzed using CBIS data analysis suite (Cheminnovation, CA). Percentage inhibition was calculated using the following formula: % I-hibition=100%×(1−(mea−RLU of test sample−mean RLU of vehicle control)/(mean-RLU of EC80 control−mean RLU of vehicle control)). The activity for representative examples of the invention is shown in the following table, wherein A: IC50≤500 nM; B: 500 nM<IC50≤2 μM; C: 2 μM<IC50≤10 μM; D: IC50>10 μM.
`CC(C)(C)Nc1cc(CN2C(=O)N(c3ccc(SC(F)(F)F)cc3)C(=O)C2(C)C)ccn1` [Compound 387, 1-((2-(tert-butylamino)pyridin-4-yl)methyl)-5,5-dimethyl-3-(4-((trifluoromethyl)thio)phenyl) imidazolidine-2,4-dione] gave a pIC50 of 5.70 to 6.30.
Work on `CC1(C)C(=O)N(c2ccc(SC(F)(F)F)cc2)C(=O)N1Cc1ccnc(NC2CCC2)c1` [Compound 378, 1-((2-(cyclobutylamino)pyridin-4-yl)methyl)-5,5-dimethyl-3-(4-((trifluoromethyl)thio)phenyl) imidazolidine-2,4-dione] yielded a pIC50 of no less than 6.30.
Compound `CC1(C)C(=O)N(c2ccc(SC(F)(F)F)cc2)C(=O)N1Cc1cccc(Nc2c(Nc3ccccc3)c(=O)c2=O)n1` [Compound 367, 1-((6-((3,4-dioxo-2-(phenylamino)cyclobut-1-en-1-yl)amino)pyridin-2-yl)methyl)-5,5-dimethyl-3-(4-((trifluoromethyl)thio)phenyl) imidazolidine-2,4-dione] has a pIC50 of 5.70 to 6.30.
In the case of `CC1(C)C(=O)N(c2ccc(SC(F)(F)F)cc2)C(=O)N1Cc1ccnc(NC(=O)NC2CCOC2)c1` (stereo not drawn) [Compound 303, 1-(4-((5,5-dimethyl-2,4-dioxo-3-(4-((trifluoromethyl)thio)phenyl)imidazolidin-1-yl)methyl)pyridin-2-yl)-3-(tetrahydrofuran-3-yl)urea], the pIC50 was no less than 6.30.
`CC1(C)C(=O)N(c2ccc(SC(F)(F)F)cc2)C(=O)N1Cc1ccnc(NC(=O)c2cccnc2)c1` [Compound 360, N-(4-((5,5-dimethyl-2,4-dioxo-3-(4-((trifluoromethyl)thio)phenyl)imidazolidin-1-yl)methyl)pyridin-2-yl)nicotinamide] showed a pIC50 of no less than 6.30.
Work on `CCc1cn(C)c2cc(N3C(=O)N(Cc4ccnc(NC(C)C)c4)C(C)(C)C3=O)ccc12` [Compound 257, 3-(3-ethyl-1-methyl-1H-indol-6-yl)-1-((2-(isopropylamino)pyridin-4-yl)methyl)-5,5-dimethylimidazolidine-2,4-dione] yielded a pIC50 of 5.70 to 6.30.
Compound `CC1(C)C(=O)N(c2ccc(SC(F)(F)F)cc2)C(=O)N1CCc1cn[nH]c1` [Compound 400, 1-(2-(1H-pyrazol-4-yl)ethyl)-5,5-dimethyl-3-(4-((trifluoromethyl)thio)phenyl) imidazolidine-2,4-dione] has a pIC50 of 5.00 to 5.70.
Work on `CC1(Nc2cc(CN3C(=O)N(c4ccc(C(C)(C)C)cc4)C(=O)C3(C)C)ccn2)CC1` [Compound 273, 3-(4-(tert-butyl)phenyl)-5,5-dimethyl-1-((2-((1-methylcyclopropyl)amino)pyridin-4-yl)methyl) imidazolidine-2,4-dione] yielded a pIC50 of no less than 6.30.
In the case of `CC1(C)C(=O)N(c2ccc(C(F)(F)F)cc2)C(=O)N1Cc1ccnc(N)c1` [Compound 91, 1-((2-aminopyridin-4-yl)methyl)-5,5-dimethyl-3-(4-(trifluoromethyl)phenyl)imidazolidine-2,4-dione], the pIC50 was 5.00 to 5.70.
`CC(C)Nc1cc(CN2C(=O)N(c3ccc(S(F)(F)(F)(F)F)cc3)C(=O)C2(C)C)ccn1` [Compound 178, 1-((2-(isopropylamino)pyridin-4-yl)methyl)-5,5-dimethyl-3-(4-(pentafluoro-16-sulfanyl)phenyl)imidazolidine-2,4-dione] was tested, and the pIC50 was no less than 6.30.
Work on `Cc1cc2c(CN3C(=O)N(c4ccc(C5(C(F)(F)F)CC5)cc4)C(=O)C3(C)C)ccnc2[nH]1` [Compound 9, 5,5-dimethyl-1-((2-methyl-1H-pyrrolo[2,3-b]pyridin-4-yl)methyl)-3-(4-(1-(trifluoromethyl)cyclopropyl)phenyl) imidazolidine-2,4-dione] yielded a pIC50 of no less than 6.30.
For `CC1(C)C(=O)N(c2ccc(C3CCCCC3)cc2)C(=O)N1Cc1ccnc(N)c1` [Compound 87, 1-((2-aminopyridin-4-yl)methyl)-3-(4-cyclohexylphenyl)-5,5-dimethylimidazolidine-2,4-dione], the pIC50 was 5.70 to 6.30.
Compound `CC1(C)C(=O)N(c2ccc(SC(F)(F)F)cc2)C(=O)N1Cc1ccnc2[nH]cc(Cl)c12` [Compound 5, 1-((3-chloro-1H-pyrrolo[2,3-b]pyridin-4-yl)methyl)-5,5-dimethyl-3-(4-((trifluoromethyl)thio)phenyl)imidazolidine-2,4-dione] has a pIC50 of no less than 6.30.
`CC(C)(C)c1ccc(N2C(=O)N(Cc3ccnc(-c4ccccc4)c3)C(C)(C)C2=O)cc1` [Compound 346, 3-(4-(tert-butyl)phenyl)-5,5-dimethyl-1-((2-phenylpyridin-4-yl)methyl)imidazoline-2,4-dione] showed a pIC50 of 5.70 to 6.30.
In the case of `CC1(C)C(=O)N(c2ccc(SC(F)(F)F)cc2)C(=O)N1Cc1ccnc(NC(=O)C2NCC23CCCCC3)c1` (stereo not drawn) [Compound 305, N-(4-((5,5-dimethyl-2,4-dioxo-3-(4-((trifluoromethyl)thio)phenyl)imidazolidin-1-yl)methyl)pyridin-2-yl)-2-azaspiro[3.5]nonane-1-carboxamide], the pIC50 was 5.00 to 5.70.
`CN1CCC(NC(=O)Nc2cc(CN3C(=O)N(c4ccc(SC(F)(F)F)cc4)C(=O)C3(C)C)ccn2)CC1` [Compound 309, 1-(4-((5,5-dimethyl-2,4-dioxo-3-(4-((trifluoromethyl)thio)phenyl)imidazolidin-1-yl)methyl)pyridin-2-yl)-3-(1-methylpiperidin-4-yl)urea] gave a pIC50 of no less than 6.30.
In the case of `CC(C)Nc1cc(CN2C(=O)N(c3ccc([C@H]4C[C@@H]4F)cc3)C(=O)C2(C)C)ccn1` [Compound 96, 3-(4-((1R,2S)-2-fluorocyclopropyl)phenyl)-1-((2-(isopropylamino)pyridin-4-yl)methyl)-5,5-dimethylimidazolidine-2,4-dione], the pIC50 was 5.70 to 6.30.
`CC1(C)C(=O)N(c2ccc(SC(F)(F)F)cc2)C(=O)N1Cc1ccnc(NC(=O)Nc2ccc(F)cc2)c1` [Compound 368, 1-(4-((5,5-dimethyl-2,4-dioxo-3-(4-((trifluoromethyl)thio)phenyl)imidazolidin-1-yl)methyl)pyridin-2-yl)-3-(4-fluorophenyl)urea] showed a pIC50 of no less than 6.30.
Compound `Nc1cc(CN2C(=O)N(c3ccc(SC(F)(F)F)cc3)C(=O)[C@@H]2C2CCCCC2)ccn1` [Compound 296, (S)-1-((2-aminopyridin-4-yl)methyl)-5-cyclohexyl-3-(4-((trifluoromethyl)thio)phenyl)imidazolidine-2,4-dione] has a pIC50 of less than 5.00.
`CN1CC(Oc2ccc(Nc3cc(CN4C(=O)N(c5ccc(SC(F)(F)F)cc5)C(=O)C4(C)C)ccn3)cc2)C1` [Compound 349, 5,5-dimethyl-1-((2-((4-((1-methylazetidin-3-yl)oxy)phenyl)amino)pyridin-4-yl)methyl)-3-(4-((trifluoromethyl)thio)phenyl) imidazolidine-2,4-dione] was tested, and the pIC50 was no less than 6.30.
`Cn1cc(NC(=O)Nc2cc(CN3C(=O)N(c4ccc(SC(F)(F)F)cc4)C(=O)C3(C)C)ccn2)cn1` [Compound 350, 1-(4-((5,5-dimethyl-2,4-dioxo-3-(4-((trifluoromethyl)thio)phenyl)imidazolidin-1-yl)methyl)pyridin-2-yl)-3-(1-methyl-1H-pyrazol-4-yl)urea] showed a pIC50 of no less than 6.30.
Work on `CC1(C)C(=O)N(c2ccc(SC(F)(F)F)cc2)C(=O)N1Cc1ccnc(Nc2cccc(O)n2)c1` [Compound 362, 1-((2-((6-hydroxypyridin-2-yl)amino)pyridin-4-yl)methyl)-5,5-dimethyl-3-(4-((trifluoromethyl)thio)phenyl) imidazolidine-2,4-dione] yielded a pIC50 of 5.70 to 6.30.
Work on `CC1(C)C(=O)N(c2ccc(C3=CCCCC3)cc2)C(=O)N1Cc1ccnc(N)c1` [Compound 86, 1-((2-aminopyridin-4-yl)methyl)-5,5-dimethyl-3-(2′,3′,4′,5′-tetrahydro-[1,1′-biphenyl]-4-yl)imidazolidine-2,4-dione] yielded a pIC50 of 5.70 to 6.30.
Compound `CC1(C)C(=O)N(c2ccc(C3(C(F)(F)F)CC3)cc2)C(=O)N1Cc1ccnc2[nH]c(-c3ccccc3)cc12` [Compound 11, 5,5-dimethyl-1-((2-phenyl-1H-pyrrolo[2,3-b]pyridin-4-yl)methyl)-3-(4-(1-(trifluoromethyl)cyclopropyl)phenyl) imidazolidine-2,4-dione] has a pIC50 of no less than 6.30.
Work on `CC(C)Nc1nccc(CN2C(=O)N(c3ccc(SC(F)(F)F)cc3)C(=O)C2(C)C)c1F` [Compound 382, 1-((3-fluoro-2-(isopropylamino)pyridin-4-yl)methyl)-5,5-dimethyl-3-(4-((trifluoromethyl)thio)phenyl) imidazolidine-2,4-dione] yielded a pIC50 of 5.00 to 5.70.
`CC1(C)C(=O)N(c2ccc3c(C(F)(F)F)n[nH]c3c2)C(=O)N1Cc1ccnc(N)c1` [Compound 254, 1-((2-aminopyridin-4-yl)methyl)-5,5-dimethyl-3-(3-(trifluoromethyl)-1H-indazol-6-yl)imidazolidine-2,4-dione] showed a pIC50 of 5.70 to 6.30.
For `COCC(C)(C)Nc1cc(CN2C(=O)N(c3ccc(C(C)(C)C)cc3)C(=O)C2(C)C)ccn1` [Compound 274, 3-(4-(tert-butyl)phenyl)-1-((2-((1-methoxy-2-methylpropan-2-yl)amino)pyridin-4-yl)methyl)-5,5-dimethylimidazolidine-2,4-dione], the pIC50 was 5.70 to 6.30.
